Data taken from patent publication US9216973B2, “Insecticidal compounds” (Syngenta Participations AG, priority 2008, dated 2015).

Tests used:
Type in all cases: in vivo
[1] = test system: Diabrotica balteata (Corn root worm); experiment: Diabrotica balteata larvae test on artificial diet; conditions: for pest or weed control at 200 ppm: 120 h, 200 ppm (concentration in well 18 ppm), artificial diet, L2 larvae, larval mortality and growth regulation after 5 days; for effect on mortality, feeding behavior, or growth regulation: same protocol, 200 ppm
Protocol: (§1) This Example illustrates the insecticidal and acaricidal properties of compounds of formula (I). The tests were performed as follows:
(§2) Cotton leaf discs were placed on agar in a 24-well microtiter plate and sprayed with test solutions at an application rate of 200 ppm. After drying, the leaf discs were infested with 5 L1 larvae. The samples were checked for mortality, feeding behavior, and growth regulation 3 days after treatment (DAT). The following compound gave at least 80% control of Spodoptera littoralis: A1, A2, A5, A6, A7, A8, A10, A11, A12, A13, A14, A15, A16, A17, A18, A19, A21, A22, A23, A24, A25, A30, A31, A32, A33, A34, A35, A39, A40, A41 A42, A43, A44, A45, A46, A47, A48, A49, A50, A51, A53, A54, A55, A59, A60, A61, A62. Heliothis virescens (Tobacco budworm): Eggs (0-24 h old) were placed in 24-well microtiter plate on artificial diet and treated with test solutions at an application rate of 200 ppm (concentration in well 18 ppm) by pipetting. After an incubation period of 4 days, samples were checked for egg mortality, larval mortality, and growth regulation. The following compound gave at least 80% control of Heliothis virescens: A1, A2, A3, A4, A5, A6, A7, A8, A10, A11, A12, A13, A14, A15, A16, A18, A19, A21, A22, A24, A25, A30, A31, A32, A33, A34, A35, A37, A38, A39, A40, A42, A43, A44, A45, A46, A47, A48, A49, A50, A51, A55, AA57, A58, A59, A60, A61, A62. Plutella xylostella (Diamond back moth): 24-well microtiter plate (MTP) with artificial diet was treated with test solutions at an application rate of 200 ppm (concentration in well 18 ppm) by pipetting. After drying, the MTP's were infested with L2 larvae (7-12 per well). After an incubation period of 6 days, samples were checked for larval mortality and growth regulation. The following compound gave at least 80% control of Plutella xylostella: A1, A2, A5, A6, A7, A8, A9, A10, A11, A12, A13, A14, A15, A16, A17, A18, A19, A20, A21, A22, A24, A25, A30, A31, A32, A33, A34, A35, A37, A38, A39, A40, A42, A43, A44, A45, A46, A47, A48, A49, A50, A51, A52, A53, A54, A55, A57, A58, A59, A60, A61, A62, B3. Diabrotica balteata (Corn root worm): A 24-well microtiter plate (MTP) with artificial diet was treated with test solutions at an application rate of 200 ppm (concentration in well 18 ppm) by pipetting. After drying, the MTP's were infested with L2 larvae (6-10 per well). After an incubation period of 5 days, samples were checked for larval mortality and growth regulation. The following compound gave at least 80% control of Diabrotica balteata: A1, A2, A5, A6, A7, A10, A11, A12, A13, A14, A15, A16, A17, A18, A19, A21, A22, A24, A25, A30, A31, A32, A33, A34, A35, A38, A39, A40, A42, A43, A44, A45, A46, A47, A48, A49, A50, A59, A60, A61, A62. Thrips tabaci (Onion thrips): Sunflower leaf discs were placed on agar in a 24-well microtiter plate and sprayed with test solutions at an application rate of 200 ppm. After drying, the leaf discs were infested with an […] population of mixed ages. After an incubation period of 7 days, samples were checked for mortality. The following compounds gave at least 80% control of Thrips tabaci: A1, A2, A5, A6, A7, A8, A10, A12, A13, A14, A15, A16, A17, A18, A19, A21, A24, A25, A30, A31, A32, A33, A34, A35, A39, A42, A43, A44, A45, A46, A47, A48, A49, A50, A51, A53, A54, A57, A58, A59, A60, A61, A62. Tetranychus urticae (Two-spotted spider mite): Bean leaf discs on agar in 24-well microtiter plates were sprayed with test solutions at an application rate of 200 ppm. After drying, the leaf discs are infested with mite populations of mixed ages. 8 days later, discs are checked for egg mortality, larval mortality, and adult mortality. The following compound gave at least 80% control of Tetranychus urticae: A1, A2, A4, A5, A6, A7, A8, A10, A11, A12, A13, A14, A15, A16, A17, A18, A19, A20, A21, A22, A30, A31, A32, A33, A34, A35, A39, A40, A41, A42, A43, A44, A45, A46, A47, A48, A49, A50, A51, A53, A54, A55, A57, A59, A60, A61, A62.

[2] = test system: Thrips tabaci (Onion thrips); experiment: Thrips tabaci sunflower leaf disc spray test; conditions: for pest or weed control at 200 ppm: foliar, 168 h, 200 ppm spray on sunflower leaf discs, population of mixed ages, mortality after 7 days; for effect on mortality, feeding behavior, or growth regulation: same protocol, 200 ppm
Protocol: as §1, §2

[3] = test system: Plutella xylostella (Diamond back moth); experiment: Plutella xylostella larvae test on artificial diet; conditions: for pest or weed control at 200 ppm: 144 h, 200 ppm (concentration in well 18 ppm), artificial diet, L2 larvae, larval mortality and growth regulation after 6 days; for effect on mortality, feeding behavior, or growth regulation: same protocol, 200 ppm
Protocol: as §1, §2

SMILES | pest or weed control at 200 ppm [1] [%] | pest or weed control at 200 ppm [2] [%] | pest or weed control at 200 ppm [3] [%] | effect on mortality, feeding behavior, or growth regulation [1] | effect on mortality, feeding behavior, or growth regulation [2] | effect on mortality, feeding behavior, or growth regulation [3]
Cc1cc(C2CC(c3cc(Cl)cc(Cl)c3)(C(F)(F)F)ON2C)ccc1C(=O)NC1C[S+]([O-])C1 (stereo not shown) [A18] | ≥ 80 | ≥ 80 | ≥ 80 | – | – | –
Cc1cc(C2=NOC(c3cc(Cl)cc(Cl)c3)(C(F)(F)F)C2Br)ccc1C(=O)NC1C[S+]([O-])C1 (stereo not shown) [A7] | – | ≥ 80 | ≥ 80 | – | – | –
Cc1cc(N2CC(c3cc(Cl)cc(Cl)c3)(C(F)(F)F)OC2=O)ccc1C(=O)NC1C[S+]([O-])C1 (stereo not shown) [A10] | ≥ 80 | ≥ 80 | ≥ 80 | – | – | –
Cc1cc(C2=NOC(c3cc(Cl)cc(Cl)c3)(C(F)(F)F)C2O)ccc1C(=O)NC1C[S+]([O-])C1 (stereo not shown) [A53] | – | ≥ 80 | ≥ 80 | – | – | –
Cc1cc(C2=NOC(c3cc(Cl)cc(Cl)c3)(C(F)(F)F)C2O)ccc1C(=O)NC1CS(=O)(=O)C1 (stereo not shown) [A51] | – | ≥ 80 | ≥ 80 | – | – | –
Cc1cc(C2=NOC(c3cc(Cl)cc(Cl)c3)(C(F)(F)F)C2F)ccc1C(=O)NC1CS(=O)(=O)C1 (stereo not shown) [A59] | ≥ 80 | ≥ 80 | ≥ 80 | – | – | –
Cc1cc(C2=NOC(c3cc(Cl)cc(Cl)c3)(C(F)(F)F)/C2=N/O)ccc1C(=O)NC1(C)CSC1 (stereo not shown) [A56] | – | – | – | little or no effect | little or no effect | little or no effect
Cc1cc(C2=NOC(c3cc(Cl)cc(Cl)c3)(C(F)(F)F)C2F)ccc1C(=O)NC1(C)CSC1 (stereo not shown) [A60] | ≥ 80 | ≥ 80 | ≥ 80 | – | – | –
Cc1cc(C2=NOC(c3cc(Cl)cc(Cl)c3)(C(F)(F)F)C2Cl)ccc1C(=O)NC1CS(=O)(=O)C1 (stereo not shown) [A32] | ≥ 80 | ≥ 80 | ≥ 80 | – | – | –
Cc1cc(C2=NCC(c3cc(Cl)cc(Cl)c3)(C(F)(F)F)C2)ccc1C(=O)NC1CS(=O)(=O)C1 (stereo not shown) [A46] | ≥ 80 | ≥ 80 | ≥ 80 | – | – | –
Cc1cc(C2=NCC(c3cc(Cl)cc(Cl)c3)(C(F)(F)F)C2)ccc1C(=O)NC1C[S+]([O-])C1 (stereo not shown) [A48] | ≥ 80 | ≥ 80 | ≥ 80 | – | – | –
O=C(NC1CS(=O)(=O)C1)c1ccc(C2=NOC(c3cc(Cl)cc(Cl)c3)(C(F)(F)F)C2)c2ccccc12 (stereo not shown) [A15] | ≥ 80 | ≥ 80 | ≥ 80 | – | – | –
Cc1cc(C2=NN(C)C(c3cc(Cl)cc(Cl)c3)(C(F)(F)F)C2)ccc1C(=O)NC1C[S+]([O-])C1 (stereo not shown) [A13] | ≥ 80 | ≥ 80 | ≥ 80 | – | – | –
Cc1cc(C2=NN(C)C(c3cc(Cl)cc(Cl)c3)(C(F)(F)F)C2)ccc1C(=O)NC1CSC1 (stereo not shown) [A14] | ≥ 80 | ≥ 80 | ≥ 80 | – | – | –
Cc1cc(C2=NOC(c3cc(Cl)cc(Cl)c3)(C(F)(F)F)C2O)ccc1C(=O)NC1CSC1 (stereo not shown) [A54] | – | ≥ 80 | ≥ 80 | – | – | –
Cc1nc2c(C3=NOC(c4cc(Cl)cc(Cl)c4)(C(F)(F)F)C3)ccc(C(=O)NC3CSC3)c2o1 (stereo not shown) [A29] | – | – | – | little or no effect | little or no effect | little or no effect
O=C(NC1C[S+]([O-])C1)c1ccc(C2=NOC(c3cc(Cl)cc(Cl)c3)(C(F)(F)F)C2)c2ccccc12 (stereo not shown) [A16] | ≥ 80 | ≥ 80 | ≥ 80 | – | – | –
Cc1cc(C2=NOC(c3cc(Cl)cc(Cl)c3)(C(F)(F)F)C2F)ccc1C(=O)NC1CSC1 (stereo not shown) [A61] | ≥ 80 | ≥ 80 | ≥ 80 | – | – | –
Cc1cc(C2=NCC(c3cc(Cl)cc(Cl)c3)(C(F)(F)F)C2)ccc1C(=O)NC1(C)CSC1 (stereo not shown) [A47] | ≥ 80 | ≥ 80 | ≥ 80 | – | – | –
O=C(NC1CS(=O)(=O)C1)c1ccc(C2=NOC(c3cc(Cl)cc(Cl)c3)(C(F)(F)F)C2Br)c2ccccc12 (stereo not shown) [A42] | ≥ 80 | ≥ 80 | ≥ 80 | – | – | –
Cc1cc(C2=NOC(c3cc(Cl)cc(Cl)c3)(C(F)(F)F)C2Cl)ccc1C(=O)NC1(C)CSC1 (stereo not shown) [A33] | ≥ 80 | ≥ 80 | ≥ 80 | – | – | –
Cc1cc(C2CC(c3cc(Cl)cc(Cl)c3)(C(F)(F)F)ON2C)ccc1C(=O)NC1CSC1 (stereo not shown) [A21] | ≥ 80 | ≥ 80 | ≥ 80 | – | – | –
Cc1cc(C2=NOC(c3cc(Cl)cc(Cl)c3)(C(F)(F)F)C2F)ccc1C(=O)NC1C[S+]([O-])C1 (stereo not shown) [A62] | ≥ 80 | ≥ 80 | ≥ 80 | – | – | –
CC1(NC(=O)c2cccc3c(C4=NOC(c5cc(Cl)cc(Cl)c5)(C(F)(F)F)C4)cccc23)CSC1 (stereo not shown) [A36] | – | – | – | little or no effect | little or no effect | little or no effect
Cc1cc(C2CC(c3cc(Cl)cc(Cl)c3)(C(F)(F)F)ON2C)ccc1C(=O)NC1CS(=O)(=O)C1 (stereo not shown) [A19] | ≥ 80 | ≥ 80 | ≥ 80 | – | – | –
Cc1cc(C2=NOC(c3cc(Cl)cc(Cl)c3)(C(F)(F)F)O2)ccc1C(=O)NC1CSC1 (stereo not shown) [A17] | ≥ 80 | ≥ 80 | ≥ 80 | – | – | –
O=C(NC1CS(=O)(=O)C1)c1ccc(C2=NOC(c3cc(Cl)cc(Cl)c3)(C(F)(F)F)C2)c2nsnc12 (stereo not shown) [A22] | ≥ 80 | – | ≥ 80 | – | – | –
Cc1cc(C2=NOC(c3cc(Cl)cc(Cl)c3)(C(F)(F)F)/C2=N/O)ccc1C(=O)NC1CS(=O)(=O)C1 (stereo not shown) [A55] | – | – | ≥ 80 | – | – | –
Cc1cc(N2CC(c3cc(Cl)cc(Cl)c3)(C(F)(F)F)OC2=O)ccc1C(=O)NC1CSC1 (stereo not shown) [A11] | ≥ 80 | – | ≥ 80 | – | – | –
